From ChEMBL document CHEMBL3751677, “Cardanol-derived AChE inhibitors: Towards the development of dual binding derivatives for Alzheimer's disease” (Eur J Med Chem, 2016)
pIC50, pKi: −log10 of the molar value. Active and inactive are the calls of the source. The calls are words filed in the database; no cut-off is given here.

Key:
Acetylcholinesterase [1] = target: T1, Acetylcholinesterase (Electrophorus electricus, UniProt O42275); test: Non-competitive inhibition of electric eel acetylcholine esterase using […] as substrate by Ellman's method
T1 sequence (O42275 whole entry): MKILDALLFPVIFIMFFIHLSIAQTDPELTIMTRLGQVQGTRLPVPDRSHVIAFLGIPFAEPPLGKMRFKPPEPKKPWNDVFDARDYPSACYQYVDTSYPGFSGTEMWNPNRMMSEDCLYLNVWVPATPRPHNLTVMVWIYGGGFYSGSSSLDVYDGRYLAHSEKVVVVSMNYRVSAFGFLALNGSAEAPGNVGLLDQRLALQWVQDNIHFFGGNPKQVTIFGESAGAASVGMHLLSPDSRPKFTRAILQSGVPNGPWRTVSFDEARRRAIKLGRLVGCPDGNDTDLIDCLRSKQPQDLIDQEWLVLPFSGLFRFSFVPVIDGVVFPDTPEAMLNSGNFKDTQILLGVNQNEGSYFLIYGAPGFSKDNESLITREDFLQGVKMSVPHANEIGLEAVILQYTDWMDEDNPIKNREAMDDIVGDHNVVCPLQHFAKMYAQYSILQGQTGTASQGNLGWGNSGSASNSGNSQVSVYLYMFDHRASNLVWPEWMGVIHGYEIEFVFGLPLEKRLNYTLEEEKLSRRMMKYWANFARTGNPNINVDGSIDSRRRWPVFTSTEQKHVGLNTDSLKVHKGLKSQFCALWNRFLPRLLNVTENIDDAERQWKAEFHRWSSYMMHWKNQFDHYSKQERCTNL

HT-29 [2] = test: Cytotoxicity against human HT-29 cells at 10 uM by LDH release assay; type: cell-based; conditions: ht-29, 10 µM
[3] = Selectivity index, ratio of IC50 for horse butyrylcholine esterase to IC50 for electric eel acetylcholine esterase
Acetylcholinesterase [4] = target: T1, Acetylcholinesterase; test: Inhibition of electric eel acetylcholine esterase preincubated for 10 mins followed by the addition of […] as substrate measured after 5 mins by Ellman's method
Cholinesterase = Cholinesterase (Equus caballus, UniProt P81908); test: Inhibition of horse butyrylcholine esterase preincubated for 10 mins followed by the addition of […] as substrate measured after 5 mins by Ellman's method
Sequence of Cholinesterase (P81908 whole entry): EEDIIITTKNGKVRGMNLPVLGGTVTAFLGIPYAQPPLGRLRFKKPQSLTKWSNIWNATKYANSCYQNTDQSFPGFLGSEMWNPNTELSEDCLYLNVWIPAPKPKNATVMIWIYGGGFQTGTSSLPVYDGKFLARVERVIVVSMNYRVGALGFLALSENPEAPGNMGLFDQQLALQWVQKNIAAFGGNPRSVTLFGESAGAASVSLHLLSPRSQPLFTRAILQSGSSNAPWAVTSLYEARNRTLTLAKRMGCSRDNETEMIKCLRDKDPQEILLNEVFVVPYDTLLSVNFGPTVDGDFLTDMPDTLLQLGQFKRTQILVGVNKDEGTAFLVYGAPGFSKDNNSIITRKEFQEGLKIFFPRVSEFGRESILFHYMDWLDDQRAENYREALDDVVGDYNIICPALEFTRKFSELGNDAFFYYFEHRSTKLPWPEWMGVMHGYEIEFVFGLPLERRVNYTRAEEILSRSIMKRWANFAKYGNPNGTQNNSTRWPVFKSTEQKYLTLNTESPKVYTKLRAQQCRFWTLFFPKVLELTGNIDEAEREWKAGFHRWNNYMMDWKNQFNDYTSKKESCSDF

[5] = Cytotoxicity against human HT-29 cells assessed as decrease in cell viability after 24 hrs by calcein-AM/propidium iodide based fluorescence analysis; conditions: read-out: INH
HT-29 [6] = test: Cytotoxicity against human HT-29 cells assessed as LDH release at 100 uM after 24 hrs; type: cell-based; conditions: ht-29, 24 h
[7] = target: Amyloid-beta precursor protein (Homo sapiens) (UniProt P05067); test: Inhibition of Amyloid beta42 (unknown origin) self aggregation assessed as Abeta fibril formation at 50 uM for 24 hrs by ThT-based fluorometric assay
Sequence of Amyloid-beta precursor protein (Homo sapiens) (P05067 whole entry): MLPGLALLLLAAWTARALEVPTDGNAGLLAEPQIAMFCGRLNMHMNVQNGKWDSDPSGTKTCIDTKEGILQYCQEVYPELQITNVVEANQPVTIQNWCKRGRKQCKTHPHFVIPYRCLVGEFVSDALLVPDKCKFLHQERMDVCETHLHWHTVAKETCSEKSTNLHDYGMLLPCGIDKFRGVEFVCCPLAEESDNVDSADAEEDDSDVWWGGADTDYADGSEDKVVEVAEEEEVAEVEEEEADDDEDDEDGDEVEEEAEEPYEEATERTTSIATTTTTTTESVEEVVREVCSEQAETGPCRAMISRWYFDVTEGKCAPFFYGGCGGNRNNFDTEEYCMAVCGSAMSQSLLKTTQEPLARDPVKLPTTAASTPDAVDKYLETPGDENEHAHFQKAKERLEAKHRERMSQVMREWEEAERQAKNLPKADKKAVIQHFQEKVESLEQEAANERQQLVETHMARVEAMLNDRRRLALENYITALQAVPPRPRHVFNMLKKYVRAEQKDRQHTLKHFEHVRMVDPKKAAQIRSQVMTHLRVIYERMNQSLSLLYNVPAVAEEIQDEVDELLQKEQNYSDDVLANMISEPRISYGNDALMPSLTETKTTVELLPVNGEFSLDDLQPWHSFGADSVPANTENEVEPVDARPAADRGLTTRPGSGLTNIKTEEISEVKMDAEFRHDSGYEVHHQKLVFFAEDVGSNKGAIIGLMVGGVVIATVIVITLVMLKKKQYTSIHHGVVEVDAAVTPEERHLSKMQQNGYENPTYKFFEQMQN

Acetylcholinesterase [8] = target: Acetylcholinesterase (Homo sapiens, UniProt P22303)
Sequence of Acetylcholinesterase (Homo sapiens, UniProt P22303) (P22303 whole entry): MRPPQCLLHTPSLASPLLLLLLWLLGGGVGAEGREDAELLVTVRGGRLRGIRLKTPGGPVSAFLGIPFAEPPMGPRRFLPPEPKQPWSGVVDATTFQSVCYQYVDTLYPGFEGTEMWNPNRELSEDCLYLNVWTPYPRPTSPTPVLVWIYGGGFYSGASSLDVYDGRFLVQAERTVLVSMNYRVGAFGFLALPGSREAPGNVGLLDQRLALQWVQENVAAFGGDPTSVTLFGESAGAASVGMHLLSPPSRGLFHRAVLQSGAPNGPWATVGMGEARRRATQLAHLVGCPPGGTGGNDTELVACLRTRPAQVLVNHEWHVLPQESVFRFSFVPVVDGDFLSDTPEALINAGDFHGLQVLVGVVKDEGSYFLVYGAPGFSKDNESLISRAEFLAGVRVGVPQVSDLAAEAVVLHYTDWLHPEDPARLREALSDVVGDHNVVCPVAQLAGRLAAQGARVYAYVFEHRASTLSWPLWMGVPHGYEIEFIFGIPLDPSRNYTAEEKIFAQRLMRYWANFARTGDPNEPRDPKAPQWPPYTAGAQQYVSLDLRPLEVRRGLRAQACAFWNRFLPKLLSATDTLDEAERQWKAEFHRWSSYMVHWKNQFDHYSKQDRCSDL
Description: Inhibition of human acetylcholine esterase preincubated for 10 mins followed by the addition of 550 uM of acetylcholine iodide as substrate measured after 20 mins by Ellman's method

HT-29 [9] = test: Cytotoxicity against human HT-29 cells at 10 times IC50 by LDH release assay; type: cell-based
Acetylcholinesterase [10] = target: T1, Acetylcholinesterase; test: Mixed inhibition of electric eel acetylcholine esterase using […] as substrate by Ellman's method

SMILES | pKi (Acetylcholinesterase [1]) | Activity (HT-29 [2]) | Ratio IC50 [3] | pIC50 (Acetylcholinesterase [4]) | pIC50 (Cholinesterase) | cytotoxicity at 24 h [5] [%] | Activity (HT-29 [6]) | inhibition [7] | pIC50 (Acetylcholinesterase [8]) | Activity (HT-29 [9]) | pKi (Acetylcholinesterase [10])
COc1cccc(CCCCCCCCN2CCC(OC(=O)N(C)C)C2)c1 (racemic) | 5.07 | Non-toxic | 1.7 | 4.86 | 4.64 |  |  |  |  |  | 
COc1cccc(CCCCCCCCN2CCCC(OC(=O)N(C)C)C2)c1 (racemic) | 4.65 | Non-toxic | 1.7 | 4.84 | 4.63 |  |  |  |  |  | 
COc1cccc(CCCCCCCCNCc2ccccc2OC)c1 | 4.77 | Non-toxic | 0.2 | 4.76 | 5.51 | 46.3 | Toxic |  |  |  | 
COc1cccc(CCCCCCCCN2CCCC(OC(C)=O)C2)c1 (racemic) | 4.72 | Non-toxic | 1.2 | 4.79 | 4.72 |  |  |  |  |  | 
CCN(CCCCCCCCc1cccc(OC)c1)Cc1ccccc1 | 4.98 | Non-toxic | 0.5 | 4.79 | 5.10 |  |  |  |  |  | 
CCN(CCCCCCCCc1cccc(OC)c1)Cc1ccccc1OC | 4.61 | Non-toxic | 0.8 | 5.18 | 5.30 |  | Toxic | inactive | 5.25 | Toxic | 
COc1cccc(CCCCCCCCN2CCCC2)c1 |  | Non-toxic | 0.8 | 4.71 | 4.79 |  |  |  |  |  | 4.65
